# The supplement of paper PMC11061612
# Key:
# Capivasertib = compound: C1CN(CCC1(C(=O)N[C@@H](CCO)C2=CC=C(C=C2)Cl)N)C3=NC=NC4=C3C=CN4 [Capivasertib]; details: max 10 µM
# In short: (§1)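 In 1536-well plates, cancer cell lines in 7.5 μl DMEM/F12 or RPMI with 10% FBS spent 24 hours at 37°C and 5% CO2 and were then dosed for 72 hours with final DMSO typically 0.2%. Viability was read by CellTiter-Glo 2.0 luminescence and scaled between blank-well and DMSO-well means. The single-agent IC50 was fitted from dose responses using a logistic curve in a non-linear mixed effects model, and that logistic curve had two parameters.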
# AZD1775 = compound: C=CCn1c(=O)c2cnc(Nc3ccc(N4CCN(C)CC4)cc3)nc2n1-c1cccc(C(C)(C)O)n1 [AZD1775]; details: max 3 µM
# In short: as §1
# Trametinib = compound: CC(=O)Nc1cccc(-n2c(=O)n(C3CC3)c(=O)c3c(Nc4ccc(I)cc4F)n(C)c(=O)c(C)c32)c1 [Trametinib]; details: max 1 µM
# In short: as §1
# Palbociclib = compound: CC(=O)c1c(C)c2cnc(Nc3ccc(N4CCNCC4)cn3)nc2n(C2CCCC2)c1=O [Palbociclib]; details: max 10 µM
# In short: as §1
# AZD1390 = compound: CC(C)n1c(=O)n(C)c2cnc3cc(F)c(-c4ccc(OCCCN5CCCCC5)nc4)cc3c21 [AZD1390]; details: max 0.3 µM
# In short: as §1
# Venetoclax = compound: CC1(C)CCC(CN2CCN(c3ccc(C(=O)NS(=O)(=O)c4ccc(NCC5CCOCC5)c([N+](=O)[O-])c4)c(Oc4cnc5[nH]ccc5c4)c3)CC2)=C(c2ccc(Cl)cc2)C1 [Venetoclax]; details: max 1 µM
# In short: as §1
# Dasatinib = compound: CC1=C(C(=CC=C1)Cl)NC(=O)C2=CN=C(S2)NC3=CC(=NC(=N3)C)N4CCN(CC4)CCO [Dasatinib]; details: max 2 µM
# In short: as §1
# SG3199 = compound: CC1=CN2[C@@H](C1)C=NC3=CC(=C(C=C3C2=O)OC)OCCCCCOC4=C(C=C5C(=C4)N=C[C@@H]6CC(=CN6C5=O)C)OC [SG3199]; details: max 0.001 µM
# In short: as §1
# AZD2811 = compound: CCN(CCO)CCCOc1ccc2c(Nc3cc(CC(=O)Nc4cccc(F)c4)[nH]n3)ncnc2c1 [AZD2811]; details: max 1 µM
# In short: as §1
# SN-38 = compound: CCc1c2c(nc3ccc(O)cc13)-c1cc3c(c(=O)n1C2)COC(=O)[C@]3(O)CC [SN-38]; details: max 0.3 µM
# In short: as §1
# AZD0156 = compound: CN(C)CCCOc1ccc(-c2ccc3ncc4c(c3c2)n(C2CCOCC2)c(=O)n4C)cn1 [AZD0156]; details: max 3 µM
# In short: as §1
# AZD4320 = compound: CN(CC[C@H](CSC1=CC=CC=C1)NC2=C(C=C(C=C2)S(=O)(=O)NC(=O)C3=CC=C(C=C3)N4CCC(CC4)[C@H](C5=CC=CC=C5C6=CC=C(C=C6)Cl)O)S(=O)(=O)C(F)(F)F)CCO [AZD4320]; details: max 1 µM
# In short: as §1
# Alisertib = compound: COc1cc(Nc2ncc3c(n2)-c2ccc(Cl)cc2C(c2c(F)cccc2OC)=NC3)ccc1C(=O)O [Alisertib]; details: max 10 µM
# In short: as §1
# Gefitinib = compound: COc1cc2ncnc(Nc3ccc(F)c(Cl)c3)c2cc1OCCCN1CCOCC1 [Gefitinib]; details: max 10 µM
# In short: as §1
# Prexasertib = compound: COc1cccc(OCCCN)c1-c1cc(Nc2cnc(C#N)cn2)n[nH]1 [Prexasertib]; details: max 1 µM
# In short: as §1
# Doxorubicin = compound: COc1cccc2c1C(=O)c1c(O)c3c(c(O)c1C2=O)C[C@@](O)(C(=O)CO)C[C@@H]3O[C@H]1C[C@H](N)[C@H](O)[C@H](C)O1 [Doxorubicin]; details: max 1 µM
# In short: as §1
# AZD5153 = compound: COc1nnc2ccc(N3CCC(c4ccc(OCCN5CCN(C)C(=O)[C@H]5C)cc4)CC3)nn12 [AZD5153]; details: max 1 µM
# In short: as §1
# Lapatinib = compound: CS(=O)(=O)CCNCc1ccc(-c2ccc3ncnc(Nc4ccc(OCc5cccc(F)c5)c(Cl)c4)c3c2)o1 [Lapatinib]; details: max 10 µM
# In short: as §1
# AZD8186 = compound: C[C@@H](Nc1cc(F)cc(F)c1)c1cc(C(=O)N(C)C)cc2c(=O)cc(N3CCOCC3)oc12 [AZD8186]; details: max 3 µM
# In short: as §1
# Crizotinib = compound: C[C@@H](Oc1cc(-c2cnn(C3CCNCC3)c2)cnc1N)c1c(Cl)ccc(F)c1Cl [Crizotinib]; details: max 10 µM
# In short: as §1
# Savolitinib = compound: C[C@@H](c1ccc2nccn2c1)n1nnc2ncc(-c3cnn(C)c3)nc21 [Savolitinib]; details: max 1 µM
# In short: as §1
# AZD6738 = compound: C[C@@H]1COCCN1C2=NC(=NC(=C2)C3(CC3)[S@](=N)(=O)C)C4=C5C=CNC5=NC=C4 [AZD6738]; details: max 10 µM
# In short: as §1
# AZD5991 = compound: Cc1c2c(nn1C)CSCc1cc(n(C)n1)CSc1cc(c3ccccc3c1)OCCCc1c(C(=O)O)n(C)c3c-2c(Cl)ccc13 [AZD5991]; details: max 1 µM
# In short: as §1
# AZD7648 = compound: Cc1cc2ncnn2cc1Nc1ncc2c(n1)n(C1CCOCC1)c(=O)n2C [AZD7648]; details: max 10 µM
# In short: as §1
# Taselisib = compound: Cc1nc(-c2cn3c(n2)-c2ccc(-c4cnn(C(C)(C)C(N)=O)c4)cc2OCC3)n(C(C)C)n1 [Taselisib]; details: max 10 µM
# In short: as §1
# Selumetinib = compound: Cn1cnc2c(F)c(Nc3ccc(Br)cc3Cl)c(C(=O)NOCCO)cc21 [Selumetinib]; details: max 10 µM
# In short: as §1
# Olaparib = compound: O=C(c1cc(Cc2n[nH]c(=O)c3ccccc23)ccc1F)N1CCN(C(=O)C2CC2)CC1 [Olaparib]; details: max 10 µM
# In short: as §1
Cell Line,"IC50, cell viability 72 h (Capivasertib) [µM]","IC50, cell viability 72 h (AZD1775) [nM]","IC50, cell viability 72 h (Trametinib) [nM]","IC50, cell viability 72 h (Palbociclib) [µM]","IC50, cell viability 72 h (AZD1390) [nM]","IC50, cell viability 72 h (Venetoclax) [nM]","IC50, cell viability 72 h (Dasatinib) [nM]","IC50, cell viability 72 h (SG3199) [nM]","IC50, cell viability 72 h (AZD2811) [nM]","IC50, cell viability 72 h (SN-38) [nM]","IC50, cell viability 72 h (AZD0156) [nM]","IC50, cell viability 72 h (AZD4320) [nM]","IC50, cell viability 72 h (Alisertib) [µM]","IC50, cell viability 72 h (Gefitinib) [µM]","IC50, cell viability 72 h (Prexasertib) [nM]","IC50, cell viability 72 h (Doxorubicin) [nM]","IC50, cell viability 72 h (AZD5153) [nM]","IC50, cell viability 72 h (Lapatinib) [µM]","IC50, cell viability 72 h (AZD8186) [nM]","IC50, cell viability 72 h (Crizotinib) [µM]","IC50, cell viability 72 h (Savolitinib) [nM]","IC50, cell viability 72 h (AZD6738) [µM]","IC50, cell viability 72 h (AZD5991) [nM]","IC50, cell viability 72 h (AZD7648) [µM]","IC50, cell viability 72 h (Taselisib) [µM]","IC50, cell viability 72 h (Selumetinib) [µM]","IC50, cell viability 72 h (Olaparib) [µM]"
GCT (Other Solid Carcinomas),6.42,> 3000,846,> 10,> 300,> 1000,703,> 1,> 1000,43.5,> 3000,> 1000,> 10,> 10,> 1000,> 1000,603,> 10,> 3000,> 10,> 1000,> 10,> 1000,> 10,8.27,> 10,> 10
OACp4C (Esophageal Adenocarcinoma),1.63,342,56.8,> 10,> 300,> 1000,180,> 1,618,104,> 3000,117,1.9,> 10,116,323,695,2.12,> 3000,3.56,> 1000,3.03,> 1000,> 10,0.0931,5.81,> 10
COLO-792 (Melanoma),> 10,2290,110,> 10,> 300,> 1000,> 2000,> 1,> 1000,> 300,> 3000,788,> 10,> 10,> 1000,> 1000,512,> 10,> 3000,5.38,> 1000,> 10,238,> 10,1.69,5.94,> 10
KYSE-140 (Esophageal Squamous Cell Carcinoma),1.66,423,858,> 10,> 300,> 1000,1230,> 1,> 1000,> 300,> 3000,> 1000,> 10,1.93,12,> 1000,827,7.25,> 3000,> 10,> 1000,0.66,> 1000,> 10,1.13,> 10,> 10
CESS (Acute Myeloid Leukemia),4.12,353,> 1000,8.03,> 300,> 1000,1400,> 1,> 1000,6.15,> 3000,> 1000,0.107,> 10,12.2,237,297,> 10,2140,4.01,> 1000,2.08,> 1000,> 10,7.4,> 10,> 10
CA46 (Burkitt's Lymphoma),> 10,579,> 1000,> 10,> 300,> 1000,> 2000,> 1,> 1000,135,> 3000,> 1000,> 10,> 10,142,> 1000,232,> 10,> 3000,> 10,> 1000,> 10,> 1000,> 10,> 10,> 10,> 10
A253 (Head and Neck Carcinoma),4.08,1130,746,> 10,> 300,> 1000,> 2000,> 1,> 1000,18.7,> 3000,> 1000,> 10,> 10,110,177,> 1000,> 10,> 3000,> 10,> 1000,4.57,447,> 10,6.73,> 10,> 10
AU565 (Breast Carcinoma),7.95,435,> 1000,> 10,> 300,> 1000,> 2000,> 1,> 1000,14.5,> 3000,> 1000,9.28,2.74,133,634,> 1000,0.358,> 3000,> 10,> 1000,> 10,68.3,> 10,3.15,> 10,> 10
